Reference: patent US8715749B2, “Products containing polyphenol(s) and L-arginine” (priority 1998, dated 2014)
“Also recorded” adds a separate entry of the source.

Tests used:
[1] = system: Human umbilical vein endothelial cells (HUVEC); test: Nitric oxide production by HUVEC (nitrite in culture medium, Griess reaction); type: cell-based; details: for production of nitric oxide by HUVEC (in words): 48 hour incubation
Description: The culture medium used was Medium 200 (Cascade Biologics Inc.) supplemented with Low Serum Growth Supplement (Cascade Biologics Inc.) and 20% fetal calf serum (DAP).
The cocoa procyanidins evaluated were the epicatechin monomer, the dimer, the trimer, the tetramer, the pentamer, and the heptamer. The nitrite content of cocoa procyanidins were evaluated. At the maximal concentration used (100 ? g/ml), no nitrite was detected.
Human umbilical vein endothelial cells (HUVEC) were purchased at primary culture stage from Cascade Biologics Inc. (Portland). Cells were cultured in Medium supplemented with Low Serum Growth Supplement (LSGS) and 20% Fetal Calf Serum (FCS) in 75 cm^2 flasks. The cells were seeded for a week following treatment with trypsin-EDTA (2 ml/flask) at 37° C. under 5% CO2 atmosphere. Trypsin was neutralized upon addition of 3 ml. FCS.
The cell suspension was centrifuged for 10 min. at 1200 rpm and the cell pellet was resuspended in the culture medium described above.
Nitric oxide synthase activity was assessed by measuring the nitrite concentration in the culture medium. HUVEC were used between passage 2 to 13. Cells were cultured in 24-well culture plates at the concentration of 5×10^5 cells ml in Medium 200 containing LSGS (300 μl per well), and 20% CS. After a 24 hour to 48 hour incubation period at 37° C. under a 5% CO2 atmosphere, the cells were used confluent (2.5×10^6 cells). Medium was removed and fresh was added.
Cocoa procyanidin monomer and oligomers were added to the culture medium at 100 μg/ml, 10 μg/ml or 1 μg/ml (final concentration). Controls consisted of cells cultured without the procyanidins. Reference compounds included acetylcholine, ionomycin (NO synthase stimulator via calcium entry), lipopolysaccharide (NO synthase inductor), and N-methyl L-arginine acetate (inhibitor of NO synthase). The reference compounds were used in order to evidence nitrite production from endothelial NO synthesis.
NO production was estimated by measurement of nitrite (NO2) concentration in culture supernatants according to the Griess reaction. Briefly, 50 μl of conditional medium were incubated with 150 μl of Griess reagent (1% sulfanilamide in 30% acetic acid/0.1% N-(1-naphtyl)-ethylenediamine dihydrochloride in 60% acetic acid) at room temperature for 2 min. The absorbance at 540 nm was determined in a Labsystems MCC/340 multiskan. Nitrite concentration was determined by using sodium nitrite as standard and analyzed using ΔSOFT 2.12 software. The cell-free medium and 100 μg/ml of procyanidins contained no detectable nitrite concentrations.
Raw Data^1: Showing the Effect of Cocoa Procyanidins On Nitric Oxide Production by HUVEC ^1Results are expressed as μmol nitrite/10^6 cells/48 h

[2] = system: Aortic rings from New Zealand white rabbits; test: Endothelium dependent relaxation of pre-contracted rabbit aortic rings in organ baths
Description: Aortic rings from New Zealand white rabbits were set up in 20 ml organ baths. […] The cocoa procyanidins tested were the monomer, dimer, trimer, tetramer, pentamer, hexamer.
Rings were incubated for 30′ with these cocoa procyanidins (10^−5M) and re-tested with Ach and cocoa procyanidins (10^−7 to 10^−4). Incubation of the tissue with these cocoa procyanadin(s) attenuated EDR evoked by both the cocoa procyanidins and Ach acutely. The maximum relaxation to Ach pre-incubation, 49±5%; post pentamer incubation, 2±1.4%; post combo 2 incubation, 0.8±0.8%: to pentamer pre-incubation, 46.5±4.5%; post incubation, 6.8±3.2%: to combo 2 pre-incubation, 54.3±7%; post incubation, 1.7±1.1%, n=5).

[3] = system: arterial blood pressure of anesthetized guinea-pigs; test: Arterial blood pressure of anesthetized guinea-pigs after intravenous injection; type: in vivo; details: for Hypertension (%)* Exp 1 / Hypertension (%)* Exp 2 / Hypertension (%)* Exp 3 / Hypertension (%)* Exp 4 / Hypertension (%)* Exp 5 / Hypertension (%)* Exp 6: % of control mean arterial blood pressure
Description: Guinea-pigs (around 400 g body weight, male and female) were anesthetized upon injection of 40 mg/kg sodium pentobarbital. The carotid artery was canulated for monitoring of the arterial blood pressure through a Gould pressure transducer (Model P500). Each of the six cocoa procyanidins, at concentrations of 1, 3, 10, and 25 mg/kg, was injected intravenously through the jugular vein. Alterations in blood pressure were recorded on a polygraph.
No marked effect of the vehicle containing DMSO was noted when the dose of 25 mg/kg of the cocoa procyanidin was used (15±5%).
The effects of administering of 1, 3, 10, or 25 mg/kg cocoa procyanidins on arterial blood pressure of anesthetized guinea-pigs was investigated. Upon intravenous injection, the procyanidins monomer and dimer evoked a decrease in blood pressure of about 20%, i.e., not markedly different from injection of solvent alone (15±5%, n=5). […] The rank of potency of the various cocoa procyanidins, considering the highest dose used, was as follows: hexamer=tetramer>pentamer>trimer.

[4] = preliminary experiments, single dose 10^−5 M, rings pre-contracted with norepinephine 10^−5 M

CC(=O)OCC[N+](C)(C)C [Acetylcholine, acetylcholine]
Nitric Oxide Production by HUVEC, Exp. 1 ([1]; Acetylcholine 10^−5 M): 2.5 μmol nitrite/10^6 cells/48 h | Nitric Oxide Production by HUVEC, Exp. 2 ([1]; Acetylcholine 10^−5 M): 2.6 μmol nitrite/10^6 cells/48 h | Nitric Oxide Production by HUVEC, Exp. 3 ([1]; Acetylcholine 10^−5 M): 2.8 μmol nitrite/10^6 cells/48 h | Nitric Oxide Production by HUVEC, Mean ([1]; Acetylcholine 10^−5 M): 2.6 μmol nitrite/10^6 cells/48 h | % Relaxation ([2]; acute exposure, dose 10^−5 M): 49 ± 5.1% | % Relaxation ([2]; acute exposure, dose 10^−6 M): 42.2 ± 4.2% | % Relaxation ([2]; acute exposure, dose 10^−7 M): 15.2 ± 2.6% | maximum relaxation to Ach ([2]; pre-incubation, n=5): 49±5% | % Relaxation [2, 4]: 68%

C[C@H](CCC(=O)O)C[C@H](C)C[C@H](C)C(=O)/C=C(\O)[C@H](C)C[C@H](C)C/C=C/[C@@H](C)[C@@H](O)[C@@H](C)[C@@H](O)C[C@@H]1CC[C@@](C)([C@H]2CC[C@@](C)([C@@H](C)O)O2)O1 [Ionomycin, ionomycin, reference compound]
production of nitric oxide by HUVEC (in words) ([1]; 1 μM): marked production of nitric oxide | Nitric Oxide Production by HUVEC, Exp. 1 ([1]; Ionomycin 1 μM): 7.8 μmol nitrite/10^6 cells/48 h | Nitric Oxide Production by HUVEC, Exp. 2 ([1]; Ionomycin 1 μM): 6.3 μmol nitrite/10^6 cells/48 h | Nitric Oxide Production by HUVEC, Exp. 3 ([1]; Ionomycin 1 μM): 5.4 μmol nitrite/10^6 cells/48 h | Nitric Oxide Production by HUVEC, Mean ([1]; Ionomycin 1 μM): 6.5 μmol nitrite/10^6 cells/48 h

CC(=O)O.CN[C@@H](CCCNC(=N)N)C(=O)O [LNMA, N-methyl L-arginine acetate, reference compound]
production of nitric oxide by HUVEC evoked by ionomycin and lipolysaccharide (in words) ([1]; N-methyl L-arginine added to the incubation medium): blocked

Oc1cc(O)c2c(c1)O[C@H](c1ccc(O)c(O)c1)[C@H](O)C2 [Monomer, epicatechin]
Hypertension (%)* Exp 1 ([3]; 1 mg/kg intravenously): 55.32% | Hypertension (%)* Exp 2 ([3]; 1 mg/kg intravenously): 70.31% | Hypertension (%)* Exp 3 ([3]; 1 mg/kg intravenously): 70.27% | Hypertension (%)* Exp 4 ([3]; 1 mg/kg intravenously): 75.99% | Hypertension (%)* Exp 5 ([3]; 1 mg/kg intravenously): 71.92% | Hypertension (%)* Exp 6 ([3]; 1 mg/kg intravenously): 77.97% | Hypertension (%)* Exp 1 ([3]; 3 mg/kg intravenously): 62.99% | Hypertension (%)* Exp 2 ([3]; 3 mg/kg intravenously): 72.62% | Hypertension (%)* Exp 3 ([3]; 3 mg/kg intravenously): 74.59% | Hypertension (%)* Exp 4 ([3]; 3 mg/kg intravenously): 73.33% | Hypertension (%)* Exp 5 ([3]; 3 mg/kg intravenously): 76.04% | Hypertension (%)* Exp 6 ([3]; 3 mg/kg intravenously): 70.44% | Hypertension (%)* Exp 1 ([3]; 10 mg/kg intravenously): 58.95% | Hypertension (%)* Exp 2 ([3]; 10 mg/kg intravenously): 66.53% | Hypertension (%)* Exp 3 ([3]; 10 mg/kg intravenously): 70.06% | Hypertension (%)* Exp 4 ([3]; 10 mg/kg intravenously): 65.79% | Hypertension (%)* Exp 5 ([3]; 10 mg/kg intravenously): 70.69% | Hypertension (%)* Exp 6 ([3]; 10 mg/kg intravenously): 66.21% | Hypertension (%)* Exp 1 ([3]; 25 mg/kg intravenously): 46.93% | Hypertension (%)* Exp 2 ([3]; 25 mg/kg intravenously): 55.14% | Hypertension (%)* Exp 3 ([3]; 25 mg/kg intravenously): 63.08% | Hypertension (%)* Exp 4 ([3]; 25 mg/kg intravenously): 53.95% | Hypertension (%)* Exp 5 ([3]; 25 mg/kg intravenously): 65.91% | Hypertension (%)* Exp 6 ([3]; 25 mg/kg intravenously): 58.66% | rank of potency of the various cocoa procyanidins, hypotension ([3]; considering the highest dose used): hexamer=tetramer>pentamer>trimer>dimer=monomer | decrease in blood pressure ([3]; intravenous injection, solvent alone 15±5%): about 20% | production of NO from HUVEC, dose dependence (in words) ([1]; 1, 10, 100 μg/ml): marked production but only at 100 μg/ml concentration | Nitric Oxide Production by HUVEC, Exp. 1 ([1]; cocoa procyanidin 1 μg/ml): 2.3 μmol nitrite/10^6 cells/48 h | Nitric Oxide Production by HUVEC, Exp. 2 ([1]; cocoa procyanidin 1 μg/ml): 2.5 μmol nitrite/10^6 cells/48 h | Nitric Oxide Production by HUVEC, Exp. 3 ([1]; cocoa procyanidin 1 μg/ml): 2.6 μmol nitrite/10^6 cells/48 h | Nitric Oxide Production by HUVEC, Mean ([1]; cocoa procyanidin 1 μg/ml): 2.5 μmol nitrite/10^6 cells/48 h | Nitric Oxide Production by HUVEC, Exp. 1 ([1]; cocoa procyanidin 10 μg/ml): 2.7 μmol nitrite/10^6 cells/48 h | Nitric Oxide Production by HUVEC, Exp. 2 ([1]; cocoa procyanidin 10 μg/ml): 2.8 μmol nitrite/10^6 cells/48 h | Nitric Oxide Production by HUVEC, Exp. 3 ([1]; cocoa procyanidin 10 μg/ml): 2.6 μmol nitrite/10^6 cells/48 h | Nitric Oxide Production by HUVEC, Mean ([1]; cocoa procyanidin 10 μg/ml): 2.7 μmol nitrite/10^6 cells/48 h | Nitric Oxide Production by HUVEC, Exp. 1 ([1]; cocoa procyanidin 100 μg/ml): 5.4 μmol nitrite/10^6 cells/48 h | Nitric Oxide Production by HUVEC, Exp. 2 ([1]; cocoa procyanidin 100 μg/ml): 5.9 μmol nitrite/10^6 cells/48 h | Nitric Oxide Production by HUVEC, Exp. 3 ([1]; cocoa procyanidin 100 μg/ml): 5.7 μmol nitrite/10^6 cells/48 h | Nitric Oxide Production by HUVEC, Mean ([1]; cocoa procyanidin 100 μg/ml): 5.7 μmol nitrite/10^6 cells/48 h | potency of the various procyanidins, NO production (rank) ([1]; highest dose used, 100 μg/ml): dimer>trimer>heptamer=pentmer=tetramer>monomer; also recorded: dimer>trimer>hexamer=pentamer=tetramer>monomer | % Relaxation [2, 4]: 0%

lipopolysaccharide [LPS, reference compound]
production of nitric oxide by HUVEC (in words) ([1]; 100 ng/ml): marked production of nitric oxide | Nitric Oxide Production by HUVEC, Mean ([1]; LPS 100 mg/ml): 14.4 μmol nitrite/10^6 cells/48 h | Nitric Oxide Production by HUVEC, Exp. 1 ([1]; LPS 100): 15.6 μmol nitrite/10^6 cells/48 h | Nitric Oxide Production by HUVEC, Exp. 2 ([1]; LPS 100): 14.3 μmol nitrite/10^6 cells/48 h | Nitric Oxide Production by HUVEC, Exp. 3 ([1]; LPS 100): 13.2 μmol nitrite/10^6 cells/48 h
